“Also recorded” adds a separate entry of the source. Where a SMILES comes first, the peptide text is derived from it. The star is where a group is joined. Cbz = O=C(OCc1ccccc1)*
Tests used:
[1] = test system: HPH; assay: 2-Oxoglutarate: HPH binding assay; parameters: species or system human; details: competitor 10 mM
Experimental: Gel was washed four times with the indicated buffer. Analysis of HPH binding was measured by scintillation counting.

[2] = test system: labile intracellular iron pool; assay: Calcein fluorescence assay for cellular free iron; type: cell-based, human; details: calcein loaded U251 cells
Experimental: The ability of 2-oxoacids to chelate the labile intracellular iron pool was measured using the calcein fluorescence assay as previously described. The iron chelators desferrioxamine and bipyridyl were used as positive controls.

[3] = test system: HIF-1α; assay: HIF-1α accumulation in 22B head and neck cancer cells; type: cell-based, human; details: 22B cells, 100 μM each, last 30 minutes after 24 hours accumulation
Experimental: (§1) Human U87, U251, U251-HRE (20) and U373 glioma cells were cultured in Eagle's MEM medium (Mediatech). DU145 human prostate cancer cells and 022 human head and neck cancer cells were cultured in RPMI 1640 medium (Sigma). 22B Human head and neck cancer cells were cultured in high glucose DMEM (Gibco) containing 2 mM glutamine. C6 ODD-GFP rat glioma cells were cultured in high glucose DMEM with 1.5 mg/ml G418. All culture media were supplemented with 10% fetal bovine serum and 1% (v/v) penicillin/streptomycin. Rat C6 glioma cells were cultured in high glucose DMEM. For cell hypoxia treatment, the culture dishes were sealed in a modular incubator chamber, flushed with gas containing 1% O2, 5% CO2 and 94% N2 for 5 minutes, and incubated in this environment at 37° C. for indicated times.
(§2) Protein extraction, western blot analysis, and immunocytochemistry were performed as previously described. Mouse monoclonal anti-HIF-1α antibodies were 610958 (BD Biosciences), and NB100-123 (Novus). Mouse monoclonal anti-GFP antibody was 1814460 (Roche). Mouse monoclonal anti-β-actin antibody was ab6276-100 (Abcam). Dimethyloxalylglycine was D1070 (Frontier Scientific). All other chemicals were from Sigma. Antibodies recognizing HPH homologues were from Novus biologicals and the antisera recognizing […] of HIF-1α was kindly provided by R. Freeman.

[4] = test system: HIF-1α; assay: HIF-1α decay after washout of inducer; type: cell-based, human
Experimental: as §1, §2
To test this U251 cells was exposed to glucose-free Krebs buffer to either hypoxia (1% O2) or 2 mM pyruvate for four hours. Nuclear HIF-1α protein accumulation was induced by both treatments (FIG. 6A). […] HIF-1α immunoreactivity disappeared rapidly upon reoxygenation (return to 21% O2) of hypoxic cells as would be expected with the resumption of oxygen-dependent HIF-1α hydroxylation and proteolysis. […] To directly determine if the HPH activity in glioma cells was reversibly inactivated by pyruvate and oxaloacetate the ^35S-pVHL pulldown assay to measure HPH activity in extracts from cells treated for four hours with the 2-oxoacids was used. To capture the endogenous state of HPH activity, the cell extracts were first assayed without supplementation with exogenous reductants, ascorbate, or iron. […] The minimal HPH activity of extracts from pyruvate or oxaloacetate treated cells could also be restored by supplementation of the extracts with ascorbate or with exogenous ferrous iron (FeSO4) during the assay (FIG. 6D).

[5] = test system: HIF-1α; assay: Nuclear HIF-1α accumulation in human cancer cell lines (western blot); type: cell-based; details: for inhibition of HIF-1α accumulation, L- vs D-isomers and dimer: U87, four hours, glucose-free Krebs, 1 mM pyruvate or oxaloacetate, 250 μM (FIG. 3C); for HIF-1α accumulation induced by oxidant: U251 cells; for HIF-1α accumulation induced by oxidant / HIF-1α accumulation induced by metabolite: four hours; for HIF-1α accumulation induced by metabolite: substituted for glucose in Krebs buffer, normoxia; for dose inducing HIF-1α (doses as low as): culture times longer than 8 h; for threshold dose for inducing HIF-1α accumulation: four hours period of cell culture
Experimental: as §1, with “DU145 human prostate cancer cells and 022 human head and neck cancer cells were cultured in RPMI 1640 medium (Sigma).” left out
Protein extraction, western blot analysis, and immunocytochemistry were performed as previously described. […] Mouse monoclonal anti-β-actin antibody was ab6276-100 (Abcam). Dimethyloxalylglycine was D1070 (Frontier Scientific). All other chemicals were from Sigma.

[6] = test system: HIF-1α; assay: HIF-1α hydroxyproline detection in U251 whole cell extracts; type: cell-based, human; details: U251, four hours, antibody to hydroxylated ODD region
Experimental: as §2
Some reactive oxygen species can also induce HIF-1α. […] Next, attention was focused on HIF-1α proline hydroxylation as a target for 2-oxoacids.

[7] = test system: ODD-GFP; assay: Live cell assay for oxygen-dependent degradation, ODD-GFP transfected C6 glioma cells; type: cell-based, rat; details: C6 cells in Krebs buffer, 24 hours
Experimental: as §1
Next a live cell assay for oxygen-dependent HIF-1α degradation using C6 rat glioma cells that had been stably transfected with a vector encoding the HIF-1 cc ODD region fused to GFP (ODD-GFP) was performed. The ODD-GFP protein is hydroxylated and degraded in an oxygen dependent manner similar to HIF-1α. As with HIF-1α, a basal, as well as, hypoxia-inducible accumulation of ODD-GFP has been reported.

[8] = test system: HIF-1; assay: HIF-1 luciferase reporter assay in U251-HRE cells; type: cell-based, human; details: 8 h
[9] = test system: HPH1, HPH2, and HPH3; assay: HPH prolyl hydroxylation assay with in vitro translated HPHs (35S-pVHL pulldown); type: biochemical, human; details: in the absence of ascorbate or other reducing agents
Experimental: Human HPH-1,2,3 and VHL pcDNA3.1/V5-HIS vectors (kindly provided by R. Bruick) were used for TNT Coupled Reticulocyte Lysate in vitro transcription/translation (Promega). Cytoplasmic extract for HPH activity was made by lysing cell pellets in assay buffer (20 mM Tris, pH 7.5, 5 mM KCl, 1.5 mM MgCl2, and 1 mM DTT) at 4° C. using a homogenizer, centrifuging at 20,000 g for 15 minutes and collecting supernatant for the assay. HPH enzymatic reactions were performed as previously described using either IVT products or cell extracts. This assay, chosen for its specificity for the HPH reaction, was linear over 30 minutes. For each reaction, either 7.5 μL of IVT products or 100 μg of cell extract protein were used as source of the enzyme. Activity was measured by either quantitative scintillation counting or by autoradiography after gel electrophoresis on a 10-20% Tris Glycine gradient gel (Invitrogen).
To determine whether HPH activity was directly modulated by pyruvate or oxaloacetate, Pro564 hydroxylation in a biotinylated HIF-1α ODD peptide by in vitro translated HPH1, HPH2, and HPH3 was examined. The ability of streptavidin beads to pull down ^35S-pVHL bound to the biotinylated peptide was used as evidence of HIF-1α ODD peptide hydroxylation. This is the most specific and sensitive assay for HPH activity. […] Such assays can also give high background values in cell extracts.

[10] = test system: VEGF and GLUT3; assay: RT-PCR of HIF-1 regulated genes in U87 cells; type: cell-based, human; details: U87, 5× the level normally found in MEM, 2 d
Experimental: Total RNA was isolated using the RNeasy kit (Qiagen). For RT-PCR, 1 μg of total RNA was used with the […] One-Step System (Invitrogen). VEGF, GLUT3, and β-Actin primers were described previously. For quantitative PCR analysis, the iQ SY BR Green Supermix and MyiQ Single-Color

Which “displacement of iron dependent binding of 35S-HPHs to immobilized 2-OG” value [1] does the source give for O=C(O)CCC(=O)C(=O)O [2-OG, 2-oxoglutarate] here?
The value was “readily displaced”.

For CC(=O)N(O)CCCCCNC(=O)CCC(=O)N(O)CCCCCNC(=O)CCC(=O)N(O)CCCCCN [DFO, desferrioxamine], which intracellular calcein fluorescence [2] is on record?
The intracellular calcein fluorescence was “increase in fluorescence”.

How did the “accumulated (pyruvate-enhanced) HIF-1α after supplementation” value [3] turn out when [Fe+3] [Fe(III)] was run?
The value was “Fe(II)>Fe(III)”.

What about the “accumulated (pyruvate-enhanced) HIF-1α after supplementation” value ([3]; listed as ferric iron) of the same molecule?
The value was “diminished to a greater extent by ferrous iron than by ferric iron”.

And the “HIF-1α decay following induction with pyruvate or oxaloacetate, iron in wash” value ([4]; 100 μM each)?
The value was “not Fe(III)”.

What about the “decay of NO-induced HIF-1α with iron in wash” value ([4]; 100 μM each) of the same molecule?
The value was “not Fe(III)”.

What about the “decay of accumulated HIF-1α after washing out DFO, iron added” value ([4]; 100 μM each) of the same molecule?
Its value is “not Fe(III)”.

With N[C@@H](CCC(=O)N[C@@H](CS)C(=O)NCC(=O)O)C(=O)O [GSH, glutathione] as the molecule, how does the “HIF-1α accumulation by hypoxia or the iron chelator DFO” value ([5]; FIG. 3C, 1% O2 or 150 μM DFO) read?
Its value is “not by hypoxia or DFO”.

What about the “inhibition of HIF-1α accumulation, L- vs D-isomers and dimer” value [5] of the same molecule?
The value was “selectively inhibited”.

What about the “NO induced HIF-1α accumulation” value ([5]; U251, MEM, DETA-NO 300 μM, ascorbate 100 μM, Fe(II) 100 μM, GSH 5 mM) of the same molecule?
The value was “complete inhibition”.

What about the “HIF-1α decay with agent added to the wash” value ([4]; U87 after pyruvate or oxaloacetate, 100 μM ascorbate, 5 mM GSH or MEM amino acid mixture) of the same molecule?
Its value is “HIF-1α decay was rapidly resumed”.

For OO [H2O2], which “HIF-1α accumulation induced by oxidant” value [5] is on record?
The value was “induce HIF-1α accumulation”.

With CC(C)C[C@@H](C=O)NC(=O)[C@H](CC(C)C)NC(=O)[C@H](CC(C)C)NC(=O)OCc1ccccc1 [MG132] (Cbz-Leu-Leu-Leu-aldehyde) as the molecule, how does the “hydroxyproline (Pro564) in induced HIF-1α” value [6] read?
Its value is “hydroxyproline was detected”.

NCCN(CCN)[N+]([O-])=NO [NO] was tested. Which “HIF-1α accumulation induced by oxidant” value [5] did it give?
The value was “induce HIF-1α accumulation”.

And the “HIF-1α decay after washing of NO treated cells” value ([4]; extensive washing with MEM)?
The value was “sluggish HIF-1α decay”.

What does the source list for O=C(O)CCC(=O)O [Succinate]?
displacement of iron dependent binding of 35S-HPHs to immobilized 2-OG [1]: not by succinate; also recorded: did not find a significant effect; stimulation of basal ODD-GFP accumulation [7]: not by succinate; also recorded: did not find a significant effect; induction of HIF-1 regulated reporter gene (HRE-luciferase) [8]: did not find a significant effect; HIF-1α accumulation induced by metabolite [5]: unable to induce HIF-1α accumulation; HIF-1α accumulation induced by metabolite ([5]; listed as succinate): did not find a significant effect

With CC(=O)CC(=O)O [acetoacetate] as the molecule, how does the “HIF-1α accumulation induced by metabolite” value [5] read?
The value was “unable to induce HIF-1α accumulation”.

How did the “HIF-1α accumulation induced by metabolite” value [5] turn out when C[C@H](N)C(=O)O [alanine] was run?
Its value is “unable to induce HIF-1α accumulation”.

With c1ccc(-c2ccccn2)nc1 [bipyridyl] as the molecule, how does the intracellular calcein fluorescence [2] read?
Its intracellular calcein fluorescence is “increase in fluorescence”.

Which “inhibition of HIF-1α accumulation, L- vs D-isomers and dimer” value [5] does the source give for N[C@@H](CSSC[C@H](N)C(=O)O)C(=O)O [cystine] here?
The value was “effective”.

Which “HIF-1α accumulation induced by metabolite” value [5] does the source give for CCOC(=O)C(C)=O [ethyl esters of pyruvate, ethyl-pyruvate] here?
The value was “effective”.

O=C(O)C(=O)CF [fluoropyruvate] was tested. Which “HIF-1α accumulation induced by metabolite” value [5] did it give?
The value was “not able to induce HIF-1α accumulation”.

Which results are given for O=C(O)/C=C/C(=O)O [fumarate]?
displacement of iron dependent binding of 35S-HPHs to immobilized 2-OG [1]: did not find a significant effect; stimulation of basal ODD-GFP accumulation [7]: did not find a significant effect; induction of HIF-1 regulated reporter gene (HRE-luciferase) [8]: did not find a significant effect; HIF-1α accumulation induced by metabolite [5]: unable to induce HIF-1α accumulation; also recorded: did not find a significant effect

Which “basal HIF-1α accumulation” value ([5]; U251 cells switched to Krebs buffer for 4 hours, 10 mM glutamine) does the source give for NC(=O)CC[C@H](N)C(=O)O [glutamine] here?
Its value is “no basal HIF-1α accumulation”.

Which “stimulation of HIF-1α ODD hydroxylation” value [9] does the source give for N[C@@H](Cc1c[nH]cn1)C(=O)O [histidine] here?
The value was “dose dependently stimulate HIF-1α ODD hydroxylation”.

What about the “basal expression of the HIF-1 regulated genes VEGF and GLUT3” value [10] of the same molecule?
Its value is “lowered the basal expression”.

Which “HIF-1α accumulation induced by metabolite” value [5] does the source give for O=C(O)C(=O)C(=O)O [ketomalonate] here?
The value was “did not induce HIF-1α accumulation”.

Which “HIF-1α accumulation induced by metabolite” value [5] does the source give for O=C(O)CC(O)C(=O)O (stereo not shown) [malate] here?
Its value is “unable to induce HIF-1α accumulation”.

What does the source list for O=C(O)CC(=O)C(=O)O [oxaloacetate]?
dose inducing HIF-1α (doses as low as) [5]: 100 µM; threshold dose for inducing HIF-1α accumulation [5]: about 300 μM

For CC(=O)C=O [pyruvaldehyde], which “HIF-1α accumulation induced by metabolite” value [5] is on record?
The value was “unable to induce HIF-1α accumulation”.

CC(=O)C(=O)O [pyruvate] was tested. Which “dose inducing HIF-1α (doses as low as)” value [5] did it give?
Its value is 100 µM.

And the “threshold dose for inducing HIF-1α accumulation” value [5]?
The value was “about 300 μM”.

How did the “HIF-1α accumulation induced by metabolite” value [5] turn out when CC[C@H](C)C(=O)C(=O)O [α-keto-β-methylvalerate] was run?
Its value is “active in some but not all cell lines”.

O=C(O)CCCC(=O)C(=O)O [α-ketoadipate] was tested. Which “HIF-1α accumulation induced by metabolite” value [5] did it give?
The value was “did not induce HIF-1α accumulation”.

With CCC(=O)C(=O)O [α-ketobutyrate] as the molecule, how does the “HIF-1α accumulation induced by metabolite” value [5] read?
Its value is “did not induce HIF-1α accumulation”.

For CC(C)CC(=O)C(=O)O [α-ketoisocaproate], which “HIF-1α accumulation induced by metabolite” value [5] is on record?
The value was “active in some but not all cell lines”.

CC(C)C(=O)C(=O)O [α-ketoisovalerate] was tested. Which “HIF-1α accumulation induced by metabolite” value [5] did it give?
Its value is “minor activity”.

Which “HIF-1α accumulation induced by metabolite” value [5] does the source give for CC(O)CC(=O)O (stereo not drawn) [β-hydroxybutyrate] here?
The value was “unable to induce HIF-1α accumulation”.

Source: US20080045463A1, “Methods For Lowering Hif-1 Mediated Gene Expression” (priority 2004, published 2008)
